Reference: patent US20180178043A1, “FOCUSTED ULTRASOUND HYPERTHERMIA” (KING'S COLLEGE LONDON, priority 2015, published 2018)
Values joined by “and” are separate entries in the source; they are usually repeats but may differ in a detail not shown here. Equal entries are not always repeated.

What was measured:
[1] = 7T MRI T1/T2 assessment of liposome samples and controls; assay type: physicochemical; design: r1 (relaxometry value): unit not given here; settings: for T1 (s) 1param / T1 (s) 3param / T1 (s) ImageJ / T2 (s) 1param / T2 (s) ImageJ / T2 (s) 3param: 7 T
From the text: A series of MRI T1/T2 assessment studies have been carried out using a 7 T pre-clinical MRI scanner, with the assistance of Dr Po-Wah So (James Black Centre, KCL). The focus here has been to derive reliable r1/r2 relaxivities per molar Gd(III) for liposome produced using the [Gd]DOTA.DSA, [Gd]DOTA.Ahx.DSA and [Gd]DOTA.Aoc.DSA. This is reliant on both accurate measurements of the T1/T2 effects and also the exact gadolinium concentration in the prepared liposome suspensions. The extrusion and gel filtration processes make this latter hard to estimate, so Inductively Coupled Plasma Mass Spectrometry (ICP-MS) quantification is being assessed. This is turn required testing of suitable acid digestion conditions since the lipid-chelates may not be analysed directly. For both MRI and ICP-MS, commercial Gadovist is being used a positive control contrast agent of known Gd content. Assessment of temperature, buffer salt and liposome size effects on T1/T2 are also underway.
FIGS. 22 and 23 show Example T1 and T2 brightness traces for controls and liposome samples.
Comparison of liposomes containing different lipids as measured at 7T Magnet*.

[2] = Pharmacokinetics of topotecan in blood, quantification by HPLC; assay type: in vivo, Balb C Mice
Procedure: Balb C Mice were injected with IgFUS-TNPs encapsulating topotecan (8 mg/kg per mouse body weight) and drug pharmacokinetics monitored by blood sample analyses. Blood samples (50-100 μL) were collected at time intervals (2 min-4 h) and transferred into pre-weighed plastic vials containing heparin (5 uL). Cold methanol (100 μL) was added to each and the mixed samples stored over dry ice or at −20° C. until required. After thawing, each vial was weighed again and the difference used to estimate then original sample volume. […] Batches of 5 samples were analysed three times using an Agilent 1100 HPLC equipped with a cooled sample chamber (8-12° C.), a guarded Thermo Hypersil 30×4.6 mm, 5 μm C18 column, a Diode Array Detector (UV/vis absorbance) and an Agilent 1260 Infinity fluorescence detector. […] Detection was by absorbance (210/254/280 nm for proteins and other biologicals; 380 nm for topotecan; all using a bandwidth of 8 nm c.p. reference at 700 nm) and fluorescence (Ex 400 nm; Em 545 nm; PMT-gain 18). Injections were 5-20 μL depending on the sample concentrations and quantifications were calculated from the fluorescence peak areas after calibration (the detector response was effectively linear over the sensitive range). Topotecan could be reliably identified even at extremely low concentrations (10-20 ng/mL) by its intrinsic fluorescence and retention time (3.33±0.03 min; N=45). […]

[3] = 19.6 °C, conc >0.3 mM, dil not given
[4] = 19.6 °C, dil 1 (liposomes 20 mg/mL; Gadovist 3.1 or 3 mM), Gadovist 3 mM
[5] = 19.6 °C, dil 1 (liposomes 20 mg/mL; Gadovist 3.1 or 3 mM), Gadovist 3.1 mM
[6] = 35.5 °C, conc >0.3 mM, dil not given

Compound: O=C([O-])CN1CCN(CC(=O)[O-])CCN([C@H](CO)[C@H](O)CO)CCN(CC(=O)[O-])CC1.[Gd+3] (racemic) [Gadovist]
- T1 (s) 1param [1, 3]: 2.033 s
- T1 (s) 3param [1, 3]: 2.061 s
- T1 (s) ImageJ [1, 3]: 2.061 s
- T2 (s) 1param [1, 3]: 0.206 s
- T2 (s) ImageJ [1, 3]: 0.1 s
- T1 (s) 1param [1, 4]: 0.09174 s
- T1 (s) 3param [1, 4]: 0.07712 s
- T1 (s) ImageJ [1, 4]: 0.092 s
- T2 (s) 1param [1, 4]: 0.04691 s
- T2 (s) 3param [1, 4]: 0.0488 s
- T2 (s) ImageJ [1, 4]: 0.047 s
- T1 (s) 1param [1, 5]: 0.072 s
- T1 (s) 3param [1, 5]: 0.084 s
- T1 (s) ImageJ [1, 5]: 0.084 s
- T2 (s) 1param [1, 5]: 0.0431 s and 0.0426 s
- T2 (s) 3param [1, 5]: 0.0422 s and 0.0419 s
- T2 (s) ImageJ [1, 5]: 0.042 s
- T1 (s) 1param [1, 6]: 2.602 s
- T1 (s) 3param [1, 6]: 2.617 s
- T1 (s) ImageJ [1, 6]: 2.606 s
- T2 (s) 1param [1, 6]: 0.153 s
- T2 (s) ImageJ [1, 6]: 0.1 s
- T1 (s) 1param ([1]; 39.5 °C, dil 1 (Gadovist 3 mM)): 0.1297 s
- T1 (s) 3param ([1]; 39.5 °C, dil 1 (Gadovist 3 mM)): 0.1138 s
- T1 (s) ImageJ ([1]; 39.5 °C, dil 1 (Gadovist 3 mM)): 0.13 s
- T2 (s) 1param ([1]; 39.5 °C, dil 1 (Gadovist 3 mM)): 0.05335 s
- T2 (s) 3param ([1]; 39.5 °C, dil 1 (Gadovist 3 mM)): 0.05578 s
- T2 (s) ImageJ ([1]; 39.5 °C, dil 1 (Gadovist 3 mM)): 0.053 s
- r1 (relaxometry value) ([1]; measured at 7T Magnet): 4.8

Compound: CC[C@@]1(O)C(=O)OCc2c1cc1n(c2=O)Cc2cc3c(CN(C)C)c(O)ccc3nc2-1 [free topotecan, topotecan]
- clearance of topotecan from the blood pool ([2]; i.v. tail vein, matched concentration, followed 4 h): cleared from the blood pool in mins
- fraction unbound ([2]; mouse, 'spiked' blood samples, previous results, read-out: loss of topotecan due to protein binding): 0.8 to 0.85
